The series relates to HeLa cells. Description: Cell cycle assay in HeLa cells. As to conditions: for % cells in cell cycle phase: G1 / % cells in cell cycle phase: G2/M / % cells in cell cycle phase: S / % cells in cell cycle phase: aneuploid / % cells in cell cycle phase: subG1: 48 hours after treatment, relative to untreated control (UTC=100); for chromosome missegregation (subG1 or aneuploid DNA content) / phase of the cell cycle in which cells arrest or delay: HeLa; for chromosome missegregation (subG1 or aneuploid DNA content): 24-hour and 48-hour timepoints. Type of series: cell-based, human. As for the experimental part: In some embodiments, HeLa cells were plated on collagen-coated 24-well plates at 50,000-60,000 cells per well, and allowed to attach to wells overnight. In some embodiments, HeLa cells were synchronized by double thymidine block (cells were washed three times with PBS, then grown in 10% FBS containing 2 mM thymidine; then 19 hours later, cells were washed three times in PBS, 10% FBS for 9 hours; cells were then incubated in 10% FBS, 2 mM thymidine for 15 hours; then washed three times with PBS, 10% FBS and samples were taken every two hours over a 16 hour period). A portion of each time sample was fixed with ethanol and treated with propidium iodide and subjected to FACs analysis for determination of the percentage of cells in each phase of the cell cycle. […] HeLa cells treated with 10 μM cisplatin or 100 ng/ml nocodazole were used as controls for G1-phase and late G2/M-phases, respectively. From the remaining portion of each of these time samples, total RNA was isolated and used to assess the expression of cell cycle marker mRNAs using the real-time RT-PCR methods and/or used to screen microarrays to assess the expression of miRNAs over the course of the cell cycle. It was observed that several miRNAs are expressed in a cell-cycle-dependent manner. Shown in Table 30 are the mRNA levels of the E2F1 transcription factor and topoisomerase 2A (Top2A), which vary over the course of the cell cycle and can be used for comparison to the experimental groups for the confirmation of cell cycle phase. Data are an average of three trials.
In some embodiments, HeLa cells were also treated with oligomeric compounds targeting miRNAs. […] The medium was removed from the plates. Each well was washed in 250 μl of PBS. […] Control cells received LIPOFECTIN™ only. […] After 24 hours (Table 31) or 48 hours (Table 32), cells were prepared for flow cytometry analysis to generate a cell cycle profile. The cell cycle profile was analyzed with the ModFit program (Verity Software House, Inc., Topsham Me.).
The random-mer ISIS 29848 (SEQ ID NO: 737) was used as a negative control, and ISIS 183891 (SEQ ID NO: 847), targeting kinesin-like 1/Eg5, was included as a positive control. Data are expressed as percentage of cells in each phase relative to the untreated control (UTC); values above 100 are considered to indicate a delay or arrest in that phase of the cell cycle. […] In some cases, the same oligomeric compound was tested in repeated experiments.
In accordance with the present invention, certain oligomeric compounds targeting miRNAs were selected for dose response studies. Using the cell cycle assay described above, the cell cycle profiles of HeLa or A549 cells treated with varying concentrations of oligomeric compounds of the present invention were assessed.
HeLa cells were treated with 25-, 50-, 100- or 150 nM of the oligomeric compounds ISIS
Numbers 327902 (SEQ ID NO: 320) and 328383 (SEQ ID NO: 492), both targeted against mir-192, and ISIS 327905 (SEQ ID NO: 323), targeting mir-205, and ISIS 328403 (SEQ ID NO: 512), targeting mir-106. Cells treated with increasing concentrations of oligomeric compounds were compared to untreated cells, to assess the dose-dependency of the observed delay or arrest. The random-mer ISIS 29848 was used as a negative control. Cells were prepared for flow cytometry 48-hours after oligonucleotide treatment, as described, supra.

Setting [1] is: HeLa cells, 150 nM oligomeric compound, 24 hours, relative to untreated control (UTC = 100).
The mark [2] stands for this setting: HeLa cells, 150 nM oligomeric compound.
Setting [3] is: HeLa cells, 150 nM, 48 hours, relative to untreated control.

In the oligonucleotide strings, read from the 5' end, every base follows the letter of its sugar. An asterisk marks phosphorothioate; unmarked linkages are phosphodiester. Other units and linkages are bracketed, terminal groups are in braces. A string of capitals states the bases alone. e = 2'-O-(2-methoxyethyl) (MOE); [5mC] = 5-methylcytosine; d = 2'-deoxy (DNA)

For the substance “345373 (AGCCTATCCTGGATTACTTGAA; sugars from the 5' end e5 d10 e7, all phosphorothioate, methylation of C not given here) [compound 345373]”, under setting [1], the “% cells aneuploid” value is 68%, the “% cells in cell cycle phase G1” value is given as 66%, the “% cells in cell cycle phase G2/M” value is 176% and the “% cells in cell cycle phase S” value is listed as 94%. Also, the “% cells in cell cycle phase subG1” value under setting [1] turned out to be 196%. For the same substance, under setting [2], the “% cells in cell cycle phase: G1” value came out at 75%, the “% cells in cell cycle phase: G2/M” value amounted to 145%, the “% cells in cell cycle phase: S” value was determined as 132% and the “% cells in cell cycle phase: aneuploid” value worked out at 119%. Under setting [2], the “% cells in cell cycle phase: subG1” value is 116%.
Regarding “328707 (eG*e[5mC]*eA*eA*e[5mC]*dA*dG*dG*d[5mC]*d[5mC]*dT*d[5mC]*dA*dA*dT*eA*eT*e[5mC]*eT*eT) [compound 328707]”, under setting [1], the “% cells aneuploid” value stood at 166%, the “% cells in cell cycle phase G1” value came out at 36%, the “% cells in cell cycle phase G2/M” value turned out to be 195% and the “% cells in cell cycle phase S” value turned out to be 93%. Under setting [1], the “% cells in cell cycle phase subG1” value stood at 188%. Further, under setting [2], the “% cells in cell cycle phase: G1” value is given as 46%, the “% cells in cell cycle phase: G2/M” value was 213%, the “% cells in cell cycle phase: S” value is given as 134% and the “% cells in cell cycle phase: aneuploid” value is recorded as 155%. Besides, under setting [2], the “% cells in cell cycle phase: subG1” value is on record as 1486%. Under setting [3], the “% cells in cell cycle phase G1” value worked out at 103%, the “% cells in cell cycle phase G2/M” value was 122%, the “% cells in cell cycle phase S” value is recorded as 87% and the “% cells in cell cycle phase aneuploid” value came out at 140%. Moreover, the “% cells in cell cycle phase subG1” value under setting [3] worked out at 125%.
Take “338826 (antisense CGGATCCTGTTACCTCACCA; all 2'-MOE, all phosphorothioate, methylation of C not given here) [compound 338826]”: under setting [1], the “% cells aneuploid” value amounted to 138%, the “% cells in cell cycle phase G1” value is on record as 148%, the “% cells in cell cycle phase G2/M” value was determined as 90% and the “% cells in cell cycle phase S” value turned out to be 79%. Also, the “% cells in cell cycle phase subG1” value under setting [1] is listed as 145%. In addition, under setting [2], the “% cells in cell cycle phase: G1” value is given as 61%, the “% cells in cell cycle phase: G2/M” value is recorded as 182%, the “% cells in cell cycle phase: S” value stood at 124% and the “% cells in cell cycle phase: aneuploid” value is 137%. In addition, the “% cells in cell cycle phase: subG1” value under setting [2] was 696%.
“ISIS 328759: SEQ ID NO: 668, targeted to mir-216 (eG*eA*eG*eG*eG*dA*dT*dT*dG*dT*dA*dT*dG*dA*dA*e[5mC]*eA*eT*e[5mC]*eT)”: the “chromosome missegregation (subG1 or aneuploid DNA content)” value (150 nM) is “induce chromosome missegregation events”. The “phase of the cell cycle in which cells arrest or delay” value (from here on “phase of the cell cycle”) by setting is: (150 nM, 48 hours) “delay or arrest resulted in the G2/M-phase”; (150 nM, both 24 and 48 hours) “G2/M-phase”.
On to “338756 (antisense TGCCCTGCTCAGAGCCCTAG; all 2'-MOE, all phosphorothioate, methylation of C not given here) [compound 338756]”, for which, under setting [1], the “% cells aneuploid” value came out at 166%, the “% cells in cell cycle phase G1” value is reported as 147%, the “% cells in cell cycle phase G2/M” value worked out at 99% and the “% cells in cell cycle phase S” value was 75%. Further, under setting [1], the “% cells in cell cycle phase subG1” value worked out at 137%. Moreover, under setting [2], the “% cells in cell cycle phase: G1” value is on record as 90%, the “% cells in cell cycle phase: G2/M” value was determined as 100%, the “% cells in cell cycle phase: S” value was found to be 121% and the “% cells in cell cycle phase: aneuploid” value is 169%. In addition, under setting [2], the “% cells in cell cycle phase: subG1” value stood at 311%.
Regarding “328749 (antisense e[5mC]*eA*eG*e[5mC]*e[5mC]*dT*dG*d[5mC]*d[5mC]*dA*d[5mC]*d[5mC]*dG*d[5mC]*d[5mC]*eG*e[5mC]*eT*eT*eT) [compound 328749]”, under setting [1], the “% cells aneuploid” value is recorded as 138%, the “% cells in cell cycle phase G1” value amounted to 126%, the “% cells in cell cycle phase G2/M” value worked out at 110% and the “% cells in cell cycle phase S” value is given as 82%. Moreover, the “% cells in cell cycle phase subG1” value under setting [1] is 312%. Under setting [2], the “% cells in cell cycle phase: G1” value turned out to be 37%, the “% cells in cell cycle phase: G2/M” value is on record as 246%, the “% cells in cell cycle phase: S” value came to 129% and the “% cells in cell cycle phase: aneuploid” value is reported as 65%. Further, the “% cells in cell cycle phase: subG1” value under setting [2] came to 962%.
Consider “338690 (antisense TAGACAAAAACAGACTCTGA; all 2'-MOE, all phosphorothioate, methylation of C not given here) [compound 338690]”, for which, under setting [1], the “% cells aneuploid” value was determined as 194%, the “% cells in cell cycle phase G1” value is 124%, the “% cells in cell cycle phase G2/M” value came to 123% and the “% cells in cell cycle phase S” value amounted to 78%. The “% cells in cell cycle phase subG1” value under setting [1] worked out at 149%. Under setting [2], the “% cells in cell cycle phase: G1” value amounted to 91%, the “% cells in cell cycle phase: G2/M” value turned out to be 112%, the “% cells in cell cycle phase: S” value amounted to 110% and the “% cells in cell cycle phase: aneuploid” value came to 190%. The “% cells in cell cycle phase: subG1” value under setting [2] amounted to 413%.
In the case of “AGCCTATCCTGGATTACTTGAA (chemistry not fully specified) [ISIS 345373]”, the “phase of the cell cycle” value (150 nM, 24 hours) is on record as “G2/M-phase” and the “phase of the cell cycle” value (150 nM, 48 hours) is reported as “S-phase”.
Regarding “ISIS 338678: SEQ ID NO: 505, targeted to the mir-205 pri-miRNA (CTGGTTGGGTATGAGACAGA; all 2'-MOE, all phosphorothioate, methylation of C not given here)”, the “phase of the cell cycle” value (150 nM, time point not stated) is reported as “G2/M-phase”.
Take “338809 (antisense CTGCTCCAGAGCCCGAGTCG; all 2'-MOE, all phosphorothioate, methylation of C not given here) [compound 338809]”: under setting [1], the “% cells aneuploid” value was 210%, the “% cells in cell cycle phase G1” value came out at 159%, the “% cells in cell cycle phase G2/M” value was 69% and the “% cells in cell cycle phase S” value is listed as 82%. The “% cells in cell cycle phase subG1” value under setting [1] is recorded as 106%. Further, under setting [2], the “% cells in cell cycle phase: G1” value is recorded as 86%, the “% cells in cell cycle phase: G2/M” value was found to be 129%, the “% cells in cell cycle phase: S” value is 110% and the “% cells in cell cycle phase: aneuploid” value came to 157%. Under setting [2], the “% cells in cell cycle phase: subG1” value is 345%.
As for “ISIS 338833: SEQ ID NO: 660, targeted to hypothetical miRNA-181 (TCGTGCACCTGAGGAGTCTG; all 2'-MOE, all phosphorothioate, methylation of C not given here)”, the “chromosome missegregation (subG1 or aneuploid DNA content)” value (150 nM) is reported as “induce chromosome missegregation events”.
On to “328724 (antisense eG*eA*e[5mC]*eA*eT*d[5mC]*dA*dT*dG*dT*dG*dA*dT*dT*dT*eG*e[5mC]*eT*e[5mC]*eA) [compound 328724]”, for which, under setting [1], the “% cells aneuploid” value was 197%, the “% cells in cell cycle phase G1” value is given as 91%, the “% cells in cell cycle phase G2/M” value stood at 135% and the “% cells in cell cycle phase S” value is listed as 90%. Further, under setting [1], the “% cells in cell cycle phase subG1” value was 155%. Further, under setting [2], the “% cells in cell cycle phase: G1” value is 70%, the “% cells in cell cycle phase: G2/M” value is listed as 140%, the “% cells in cell cycle phase: S” value came out at 134% and the “% cells in cell cycle phase: aneuploid” value is on record as 155%. Further, the “% cells in cell cycle phase: subG1” value under setting [2] was 653%.
